Test results published in patent publication US6667173B2, “Nucleic acids encoding platelet derived growth factor-alpha receptors” (The Schepens Eye Research Institute, priority 2000, dated 2003).
Entries after “also recorded” stand apart in the source; their conditions may differ.

What was measured:
αPDGFR = molecular target: T1, αPDGFR (Homo sapiens, UniProt P16234); assay: Tyrosine phosphorylation of the αPDGFR in TGFβ- or PDGF-treated F cells; type: cell-based; conditions: Fα cells; 50 ng/ml PDGF-BB 5 minutes or 1 ng/ml TGFβ1 5 minutes to 8 hours
T1 construct: expressed in transfected cells; host or cells: F cells (SV-40 immortalized mouse embryo fibroblasts lacking both PDGFRs), giving Fα
Experimental: To show the effect of TGFβ on αPDGFR, the tyrosine phosphorylation state of the αPDGFR was assayed in TGFβ-treated cells. The F cells with or without PDGFR were grown to 80% confluent and then starved with DMEM containing 1% FBS for 20 hours. Cells were exposed at 37° C. for 5 minutes to either 50 ng/ml of PDGF-BB; with 1 ng/ml of TGFβ1 for 5 minutes, 1 hour, 2 hours, 4 hours, 6 hours or 8 hours; or were left unstimulated. After treatment the cells were washed twice with H/S (20 mM Hepes, pH 7.4, 150 mM NaCl) and then lysed in EB (10 mM Tris-HCl, pH 7.4, 5 mM EDTA, 50 mM NaCl, 50 mM NaF, 1% Triton-X 100, 0.1% BSA, 20 μg/ml aprotinin, 2 mM Na3VO4, 1 mM phenylmethylsulfonyl fluoride; PMSF). Lysates were centrifuged for 15 minutes at 13,000×g, the pellet was discarded and the soluble fraction was used as the total cell lysate. The protein concentration was measured using protein assay kit (Pierce, Rockfield, Ill.) following the manufacture's instructions.
Receptors were immunoprecipitated from the soluble fraction with the 27P antibody (described above). Immune complex was bound to formalin-fixed membranes of Staphylococcus aureus, spun through an EB sucrose gradient, and washed twice with EB, then with PAN (10 mM Pipes, pH 7.0, 100 mM NaCl, 1% aprotinin)+0.5% Nonidet P-40 (NP-40), and finally with PAN. The samples were resuspended in PAN before using for kinase assay or western blotting. […]

FCX^2, Fα and Fβ cells = assay: Collagen gel contraction assay of cells with no PDGFRs, αPDGFR or βPDGFR; type: cell-based, mouse; conditions: 50 ng/ml PDGF-BB; 24, 48, 72 hours
Experimental: The contraction assay was based on a previously described reference, Skuta, G. et al. (1999) J. Biol. Chem. 274:30163, with the following modifications. Fα cells were suspended in 1.5 mg/ml of neutralized collagen I (Cohesion vitrogen 100, Palo Alto, Calif.) at a density of 10^6 cells/ml, and were transferred into the 24-well plate (Falcon, Franklyn Lakes, N.J.) that had been preincubated with phosphate-buffer saline (PBS) with 5 mg/ml of bovine serum albumin (BSA) overnight. The gel was solidified by incubating at 37° C. for 90 minutes, and then the well was flooded with DMEM+5 mg/ml of BSA supplemented with an amount of vitreous such that the final concentration of vitreous in the culture medium was 1, 5 or 20%. […] The media was replaced every 24 hours and the gel diameter was measured after 48 hours. The extent of contraction was calculated by subtracting the diameter of the well at 48 hours from the initial diameter (15 mm). […]
The experiments described in Example 9 (FIG. 7B) were repeated with cells that express the βPDGFR (Fβ) instead of the αPDGFR, or no PDGFRs (FCX^2). Contraction was scored at the 48 hours time point. […]
To more directly test whether TGFβ could moderate contraction of fibroblasts via the αPDGFR, the response of the three cell lines to purified TGFβ was examined. […] The gel diameter was measured after 24, 48, or 72 hours, and the media was replaced every day.

GST-PLCγ = assay: In vitro kinase assay of immunoprecipitated mutant αPDGFRs with exogenous substrate; type: biochemical; conditions: 292 immunoprecipitates, [32P]-γ ATP, 30° C., 5 min
Experimental: Mutant αPDGFRs were selectively immunoprecipitated with the 292 antibody, and samples representing 2×10^5 cells from 292 antibodies were subjected to an in vitro kinase assay. Immunoprecipitates were preincubated with 2 μg of GST protein for 10 min at 0° C., then 2 μg of Glutathione S-transferase fusion phospholipase C-gamma (GST-PLCγ, an exogenous substrate, 10 μCi of γ-[^32P] ATP (DuPont NEN Research Products, Boston, Mass.), and universal kinase buffer (UKB; 20 mM Pipes, pH 7.0, 10 mM MnCl2, 20 μg/ml aprotinin) were added. The samples were incubated at 30° C. for 5 min. The proteins were separated by 7.5% sodium dodecyl sulfate-polyacrylamide gel electrophoresis (SDS-PAGE), the gel was dried, and the radiolabeled protein was detected by autoradiography.

rabbit eyes = assay: Rabbit PVR model: F cells expressing αPDGFR mutants injected into the vitreous; type: in vivo; conditions: up to 28 days after the surgery
Experimental: PVR was induced in the rabbit eyes as previously described (Andrews, A. et al. (1999) Invest. Ophthalmol. Vis. Sci. 40:2683 and Nakagawa, M. et al. (1995) Invest. Ophthalmol. Vis. Sci. 36:2388). Briefly, gas vitrectomy was performed by injecting 0.4 ml of expanding perfluoropropane gas (C3F8) into the vitreous cavity 4 mm posterior to the corneal limbus under anesthetical condition. Three days later, the rabbits were anesthetized and the pupils were dilated. 0.1 ml DMEM containing 1×10^5 of RCFs expressing empty vector or αPDGFR mutant were injected into the vitreous cavity together with 0.1 ml of PRP using 30 G needle. Ten rabbits underwent surgery for each cell population expressing the empty vector or the truncated, E587K, T665M, D818N, or V859M αPDGFR mutants. One rabbit in the D818N group died just after the surgery, therefore the total number is 9 for this group. The retinal status was evaluated with an indirect ophthalmoscope fitted with a +30 D fundus lens at 1, 4, 7, 14, 21, and 28 days after the surgery. The PVR was graded from 0 through 5 according to the Fastenberg score. Fastenberg, D. M. et al. (1982) Am. J. Ophthalmol. 93:565. The grading is as follows: 0; no abnormality, 1; vitreous strand, 2; traction of the retina, 3; partial retinal detachment (less than 2 quadrant), 4; extended (more than 2 quadrant) but not total retinal detachment, 5; total retinal detachment. All surgeries were performed under aseptic conditions and pursuant to the regulation of the ARVO Statement for the Use of Animals in Ophthalmic and Vision Research. Only the left eye of each rabbit was used for the experiments.
An important component of PVR is the traction force that is generated when cells of the epiretinal membrane contract. To test if the signaling enzymes that are required for contraction in the in vitro assays also participate in PVR, the cells expressing the various αPDGFR mutants, described in the previous Examples, were assayed in a rabbit PVR model, described above. In this model, rabbits first undergo gas vitrectomy, and then cells are coinjected with […]. The formation of an epiretinal membrane and retinal detachment is observed in living animals over 28 days.
Briefly, PVR was induced by introducing F cells expressing the indicated αPDGFR into the vitreous of the rabbit eyes. The PVR score was evaluated up to 28 days after the surgery according to the classification described above. The mean value and standard error of the scores in a group were indicated. Each group contained 9 or 10 rabbits; the response to parental F cells was previously reported (Andrews et al., supra), and was included here for comparison purposes.

F cells = assay: Collagen gel contraction assay of F cells expressing αPDGFR mutants; type: cell-based, mouse; conditions: PDGF-BB (50 ng/ml), 48 hours
Experimental: The contraction assay was based on a previously described reference, Skuta, G. et al. (1999) J. Biol. Chem. 274:30163, with the following modifications. Fα cells were suspended in 1.5 mg/ml of neutralized collagen I (Cohesion vitrogen 100, Palo Alto, Calif.) at a density of 10^6 cells/ml, and were transferred into the 24-well plate (Falcon, Franklyn Lakes, N.J.) that had been preincubated with phosphate-buffer saline (PBS) with 5 mg/ml of bovine serum albumin (BSA) overnight. The gel was solidified by incubating at 37° C. for 90 minutes, and then the well was flooded with DMEM+5 mg/ml of BSA supplemented with an amount of vitreous such that the final concentration of vitreous in the culture medium was 1, 5 or 20%. The gels were incubated at 37° C. with 5% CO2. The initial gel diameter was 15 mm. The media was replaced every 24 hours and the gel diameter was measured after 48 hours. The extent of contraction was calculated by subtracting the diameter of the well at 48 hours from the initial diameter (15 mm). Each experimental condition was assayed in triplicate, and at least three independent experiments were performed. Unpaired t-test was performed to detect statistic difference in contraction assay.
To determine the signaling pathways that drive contraction, cells expressing the αPDGFR mutants were subjected to the collagen gel contraction assay described above. Accordingly, F cells expressing the indicated αPDGFRs were subjected to the collagen gel assay in the presence of buffer, PDGF-BB (50 ng/ml), TGFβ1 (1 ng/ml), or FBS (10%). The data presented are the mean±standard deviation measured at the 48 hours time point. Each experimental condition was assayed in triplicate, and at least 3 independent experiments were performed.

SHP-2 = assay: Co-immunoprecipitation of SHP-2 with αPDGFR mutants in F cells; type: cell-based, mouse; conditions: 50 ng/ml PDGF-BB, 5 minutes
Experimental: (§1) The ability of the αPDGFR mutants to undergo ligand dependent tyrosine phosphorylation and to associate with signaling enzymes was then tested. F cells expressing various αPDGFR mutants were grown to subconfluence and serum starved overnight. Cells were either left resting (−) or stimulated with 50 ng/ml PDGF-BB (+) for 5 minutes, and lysed. The αPDGFR was immunoprecipitated with αPDGFR antibody, as described above, and the resulting immunoprecipitates were resolved by 7.5% SDS-PAGE and transferred onto Immobilon. The segment of the blot containing the αPDGFR was first blotted with anti-phosphotyrosine antibodies, then stripped and reprobed with an anti-αPDGFR antibody. Portions of the membrane that contained the proteins of the appropriate molecular mass were immunoblotted for PLCγ, the regulatory subunit of PI3K (p85), or SHP-2. Crude rabbit anti-p85 antibody is from Dr. A. Toker (Beth Israel Hospital/Harvard Medical School, Boston, Mass.). The monoclonal antibodies against PLCγ and SHP-2 were purchased from Upstate Biotechnology Inc.

PLCγ = assay: Co-immunoprecipitation of PLCγ with αPDGFR mutants in F cells; type: cell-based, mouse; conditions: 50 ng/ml PDGF-BB, 5 minutes
Experimental: as §1

T1 sequence (P16234 24-1089): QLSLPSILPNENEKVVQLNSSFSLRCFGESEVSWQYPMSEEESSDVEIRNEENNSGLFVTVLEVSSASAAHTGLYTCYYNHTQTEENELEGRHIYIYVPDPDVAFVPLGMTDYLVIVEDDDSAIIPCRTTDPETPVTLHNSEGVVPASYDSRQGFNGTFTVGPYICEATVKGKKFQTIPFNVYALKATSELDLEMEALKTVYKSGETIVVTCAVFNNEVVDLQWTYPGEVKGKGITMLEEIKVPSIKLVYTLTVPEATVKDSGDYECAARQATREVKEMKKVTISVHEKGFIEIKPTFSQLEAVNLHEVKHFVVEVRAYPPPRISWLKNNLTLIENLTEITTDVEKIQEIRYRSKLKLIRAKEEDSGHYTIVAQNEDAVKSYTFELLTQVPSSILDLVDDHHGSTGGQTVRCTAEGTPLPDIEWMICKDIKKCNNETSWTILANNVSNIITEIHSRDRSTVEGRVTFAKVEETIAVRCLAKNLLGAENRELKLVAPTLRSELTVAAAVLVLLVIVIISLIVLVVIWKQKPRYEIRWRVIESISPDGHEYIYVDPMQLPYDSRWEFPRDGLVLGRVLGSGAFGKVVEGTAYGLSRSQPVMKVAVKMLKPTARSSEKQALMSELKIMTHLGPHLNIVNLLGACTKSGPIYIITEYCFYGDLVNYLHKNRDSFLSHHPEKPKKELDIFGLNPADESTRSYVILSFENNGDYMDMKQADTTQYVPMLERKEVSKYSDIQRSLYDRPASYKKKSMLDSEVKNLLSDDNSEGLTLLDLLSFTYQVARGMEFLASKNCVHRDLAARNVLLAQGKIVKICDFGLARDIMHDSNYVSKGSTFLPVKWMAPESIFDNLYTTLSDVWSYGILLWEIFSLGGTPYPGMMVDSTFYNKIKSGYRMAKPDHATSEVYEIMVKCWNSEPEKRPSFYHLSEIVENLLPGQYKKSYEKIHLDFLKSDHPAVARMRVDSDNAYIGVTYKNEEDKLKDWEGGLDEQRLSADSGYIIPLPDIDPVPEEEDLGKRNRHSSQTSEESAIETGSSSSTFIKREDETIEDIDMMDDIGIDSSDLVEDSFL

| Substance | kinase activity towards exogenous substrate GST-PLCγ (GST-PLCγ) | potential to induce PVR (PVR score) (rabbit eyes) | PDGF-dependent contraction (F cells) | further results |
| --- | --- | --- | --- | --- |
| PDGF |  |  |  | tyrosine phosphorylation of the αPDGFR (αPDGFR): greatly increased the receptor's phosphotyrosine content; PDGF-induced contraction (FCX^2, Fα and Fβ cells): triggered the same extent of contraction of the Fα and Fβ cells |
| T665M: human αPDGFR point mutant, threonine at position 665 changed to methionine; SEQ ID NO: 6 | more active than the WT receptor |  |  |  |
| E587K: human αPDGFR point mutant, glutamic acid at position 587 changed to lysine; SEQ ID NO: 4 | comparable to the WT receptor |  |  |  |
| F720: αPDGFR mutant, Tyr to Phe substitution at 720 |  | induced PVR similarly to the WT receptor-expressing cells | somewhat reduced response | recruitment of SHP-2 (Properties) (SHP-2): failed to efficiently associate; also recorded: Fails to recruit SHP-2 |
| F1018: αPDGFR mutant, Tyr to Phe substitution at 1018 |  | significantly reduced | severely compromised contraction | recruitment or activation of PLCγ (Properties) (PLCγ): failed to efficiently associate; also recorded: Fails to recruit or activate |
